# Molecular target: T1, human GPBAR1 receptor (Homo sapiens, UniProt Q8TDU6)
# T1 construct: expressed in transfected cells
# T1 sequence (Q8TDU6 1-330): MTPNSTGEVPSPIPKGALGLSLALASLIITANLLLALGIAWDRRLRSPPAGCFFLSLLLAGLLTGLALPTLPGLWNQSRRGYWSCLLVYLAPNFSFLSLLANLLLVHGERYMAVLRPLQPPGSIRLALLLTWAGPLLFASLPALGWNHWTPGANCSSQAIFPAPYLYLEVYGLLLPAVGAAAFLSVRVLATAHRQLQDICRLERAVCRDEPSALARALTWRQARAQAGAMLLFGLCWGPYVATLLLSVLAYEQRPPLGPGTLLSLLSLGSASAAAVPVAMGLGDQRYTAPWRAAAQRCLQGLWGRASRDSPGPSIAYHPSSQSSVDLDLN
# Assay: functional cAMP assay in CHO-dhfr(minus) cells expressing human GPBAR1 receptors
# Assay type: cell-based
# Conditions: human EC50, functional cAMP assay, 30 min at 30° C.
# Method in brief: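 Agonist cAMP read-out: stable GPBAR1 CHO-dhfr− clone, 30 min compound exposure at 30° C following 30 min IBMX (1 mM) preincubation in Krebs Ringer bicarbonate. Time-resolved energy-transfer detection gives EC50; parental CHO cells serve as counter-screen.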
row,Molecule,EC50
1,"COC(=O)c1ccc(-c2cccc(C(CC(=NO)c3ccnc(C)c3)c3ccccc3C)c2)cc1F (racemic) [Example 100, 3-Fluoro-3′-[3-[hydroxyimino]-3-(2-methyl-pyridin-4-yl)-1-o-tolyl-propyl]-biphenyl-4-carboxylic acid methyl ester]",514 nM
2,"Cc1cc(/C(CC(c2ccc(C(=O)N3CCC(F)(F)CC3)cc2)c2ccc(F)cc2F)=N/O)ccn1 (stereo not shown) [Example 437, 3-(2,4-Difluoro-phenyl)-3-[4-(4,4-difluoro-piperidine-1-carbonyl)-phenyl]-1-(2-methyl-pyridin-4-yl)-propan-1-one oxime]",75 nM
3,"Cc1cc(C(C=C(c2ccccc2)c2ccccc2)=NO)cc(C)n1 (mixture of isomers) [Example 66, 1-(2,6-Dimethyl-pyridin-4-yl)-3,3-diphenyl-propenone oxime]",300 nM

# Second part, the molecule after the results:
row,EC50,Molecule
1,816 nM,"Cc1ccccc1C(C/C(=N\O)c1ccc(=O)n(C)c1)c1ccc(C(=O)NC(C)(C)CO)cc1 (stereo not shown) [Example 303, (E)-N-(1-Hydroxy-2-methylpropan-2-yl)-4-(3-(hydroxyimino)-3-(1-methyl-6-oxo-1,6-dihydropyridin-3-yl)-1-o-tolylpropyl)benzamide]"
2,370 nM,"Cn1cc(/C(CC(c2ccc(-c3ccc(C(=O)O)cc3)cc2)c2ccc(Cl)cc2F)=N/O)ccc1=O (single isomer, unassigned; (-)) [Example 242, (−)-4′-[1-(4-Chloro-2-fluoro-phenyl)-3-[(E)-hydroxyimino]-3-(1-methyl-6-oxo-1,6-dihydro-pyridin-3-yl)-propyl]-biphenyl-4-carboxylic acid]"
3,589 nM,"Cc1cc(/C(CC(c2cccc(-c3ccc(C(=O)O)cc3)c2)c2ccccc2C)=N/O)ccn1 (stereo not shown) [Example 103, (E)-3′-[3-[Hydroxyimino]-3-(2-methyl-pyridin-4-yl)-1-o-tolyl-propyl]-biphenyl-4-carboxylic acid]"

# Test system: not given
# Assay: not given
# Conditions: IV infusion (0.8 μmol/kg/min) for 90 min, obese and normal human subjects, over 24 hours; cited from earlier work
row,Molecule,reduced food intake
1,PYY3-36,33%
